From patent US8951972B2, “FGFR1 extracellular domain combination therapies for lung cancer” (Five Prime Therapeutics, Inc., priority 2010, dated 2015)

Experiments:
[1] = tested on: A549 Non-Small Cell Lung Cancer (NSCLC) Xenograft; assay: A549 non-small cell lung cancer (NSCLC) xenograft model, tumor volume; assay type: in vivo, SCID mice
Experimental: Six weeks old female SCID mice were purchased from Charles River Laboratories (Wilmington, Mass.) and were acclimated for 1 week before the start of the study. […] The cells were implanted subcutaneously over the right flank of the mice at 5×10^6 cells/100 μl/mouse. One day after tumor implantation, mice were randomized according to body weight at 10 mice per group.
The tumor volume and body weight of the mice were monitored twice a week throughout each study.
The tumor volume of each group of mice at the end of each study was analyzed by one-way ANOVA followed by Tukey's test.
Cisplatin was purchased from Sigma-Aldrich (St. Louis, Mo.; Cat. No. P4394), formulated in 0.9% saline, and administered i.p. at 3.5 mg/kg ([…]) once per week for six weeks. Saline was used as negative control and was administered i.p. at 100 μl per mouse twice a week for six weeks.
On day 42, when the average tumor volume in the vehicle group reached 1300 mm^3, the mice were euthanized by isoflurane inhalation and cervical dislocation.
FGFR1-ECD.339-Fc was formulated in 0.9% Saline for Injection USP at 3 mg/ml. […] FGFR1-ECD.339-Fc was administered intraperitoneally (i.p.) at 15 mg/kg twice per week for 5 weeks. Paclitaxel was administered i.p. at 18 mg/kg on days 8, 12, and 15.
When the average tumor volume in vehicle control group reached ˜500 mm^3, the mice were euthanized by isoflurane inhalation and cervical dislocation.
FGFR1-ECD.339-Fc was formulated in 0.9% Saline for Injection USP at 3 mg/ml. 5-FU was purchased from Sigma-Aldrich (St. Louis, Mo.; Cat. No. F6627) and was initially dissolved in dimethyl sulfoxide (DMSO, Sigma-Aldrich, St. Louis, Mo.; Cat. No. D8418-50) at the concentration of 50 mg/ml as a stock solution. The stock solution was further diluted in 0.9% Sodium Chloride Injection USP to 6.6 mg/ml (for 33 mg/kg dosing). FGFR1-ECD.339-Fc was administered intraperitoneally (i.p.) at 15 mg/kg twice per week for four weeks. 5-FU was administered i.p. at 33 mg/kg twice a week for three weeks.
Mice were euthanized on day 31 by isoflurane inhalation and cervical dislocation.
FGFR1-ECD.339-Fc was formulated in PBS at 3 mg/ml and administered intraperitoneally (i.p.) at 15 mg/kg (300 μg/100 μl/mouse) twice a week for four weeks. Docetaxel was administered i.p. at 3 mg/kg or 10 mg/kg twice per week for four weeks.
Mice in the albumin control group were euthanized on day 32 by isoflurane inhalation and cervical dislocation when the average tumor volume in the group reached 1000 mm^3.

[2] = Body weight of the mice in the xenograft studies; assay type: in vivo; conditions: for Body weight (weight loss): A549 study; for Body weight / tolerability: 250 mg/kg
[3] = tested on: H520 Non-Small Cell Lung Cancer (NSCLC) Xenograft; assay: H520 non-small cell lung cancer (NSCLC) xenograft model, tumor volume; assay type: in vivo, SCID mice
Experimental: Dosing for all groups began one day post tumor implantation.
In combination groups, FGFR1-ECD.339-Fc and pemetrexed were administered on the same schedule as when given as single agents, and were administered concurrently on days 1, 4, 8, and 11.

[4] = tested on: Colo205 Colon Cancer Xenograft; assay: Colo205 colon cancer xenograft model, tumor volume; assay type: in vivo, SCID mice
Experimental: Cells were resuspended in a solution of 50%/v PBS and 50%/v Matrigel at a concentration of 25 million cells/ml. Resuspended cells were kept on ice until implantation. […] On day 0, 2.5 million cells/100 μl were implanted over the right flank of the each mouse using a 27G1/2 needle. One day after tumor implantation, the mice were randomized according to the body weight.
Leucovorin (LV) was also purchased from Sigma-Aldrich (Cat. No. F8259) and was formulated in 0.9% Sodium Chloride Injection USP at 2 mg/ml (for 10 mg/kg dosing), to 4 mg/ml (for 20 mg/kg dosing), and to 6 mg/ml (for 30 mg/kg dosing).
In the first experiment, FGFR1-ECD.339-Fc was combined with three different concentrations of 5-FU/leucovorin. In the second experiment, FGFR1-ECD.339-Fc was combined with either bevacizumab or 5-FU/leucovorin, or both. The double line separates the groups from the two experiments.
When the average tumor volume in a group was near 600 mm^3, the mice in that group were euthanized by isoflurane inhalation and cervical dislocation.
The order of effectiveness of the various treatments was evaluated two ways: 1) the average tumor volume in each group on a single time point (day); and 2) time for the average tumor volume in each group to reach 500 mm^3 (see the dotted line in FIG. 11E).
Leucovorin was also purchased from Sigma-Aldrich (Cat. No. F8259) and was formulated in 0.9% Sodium Chloride Injection USP at 2 mg/ml (for 10 mg/kg dosing).
5-FU and leucovorin were each administered i.p. at 10 mg/kg daily for five days. Oxaliplatin was administered i.p. at 5 mg/kg, 10 mg/kg, or 15 mg/kg in one dose on day 1.
Mice were euthanized on day 28 by isoflurane inhalation and cervical dislocation.

[5] = day 24, FGFR1-ECD.339-Fc 15 mg/kg i.p. 3x/wk x 4 wks, bevacizumab 1 mg/kg i.p. 2x/wk x 4 wks, 5-Fu/LV 10 mg/kg each i.p. q.d. x 5 days
[6] = day 42, FGFR1-ECD.339-Fc 20 mg/kg i.p. 2x/wk x 6 wks, cisplatin 3.5 mg/kg i.p. 1x/wk x 6 wks

Compound: CC[C@]1(O)C[C@H]2CN(CCc3c([nH]c4ccccc34)[C@@](C(=O)OC)(c3cc4c(cc3OC)N(C=O)[C@H]3[C@@](O)(C(=O)OC)[C@H](OC(C)=O)[C@]5(CC)C=CCN6CC[C@]43[C@@H]65)C2)C1 [Vincristine, methyl (1R,9R,10S,11R,12R,19R)-11-(acetyloxy)-12-ethyl-4-[(13S,15S,17S)-17-ethyl-17-hydroxy-13-(methoxycarbonyl)-1,11-diazatetracyclo[13.3.1.0^4,12.0^5,10]nonadeca-4(12),5,7,9-tetraen-13-yl]-8-formyl-10-hydroxy-5-methoxy-8,16-diazapentacyclo[10.6.1.0^1,9.0^2,7.0^16,19]nonadeca-2,4,6,13-tetraene-10-carboxylate, reference compound]
- Fractional tumor volume (FTV), each treatment alone ([1]; day 39, FGFR1-ECD.339-Fc 15 mg/kg i.p. 2x/wk (start day 1), vincristine 1 mg/kg i.p. days 8, 15, 22): 0.53
- Fractional tumor volume (FTV), each treatment alone ([1]; day 46, FGFR1-ECD.339-Fc 15 mg/kg i.p. 2x/wk (start day 1), vincristine 1 mg/kg i.p. days 8, 15, 22): 0.55
- Fractional tumor volume (FTV), each treatment alone ([1]; day 70, FGFR1-ECD.339-Fc 20 mg/kg i.p. 2x/wk (start day 19), vincristine 1.5 mg/kg i.p. days 27, 34, 41): 0.41
- Body weight (weight loss) ([2]; higher dose of vincristine (1.5 mg/kg i.p. days 27, 34, 41), FIG. 9C): lost weight
- Body weight (weight loss) ([2]; lower dose of vincristine (1 mg/kg i.p. days 8, 15, 22), data not shown): did not lose weight

Compound: Nc1nc2[nH]cc(CCc3ccc(C(=O)N[C@@H](CCC(=O)O)C(=O)O)cc3)c2c(=O)[nH]1 [Pemetrexed, (S)-2-[4-[2-(4-amino-2-oxo-3,5,7-triazabicyclo[4.3.0]nona-3,8,10-trien-9-yl)ethyl]benzoyl]aminopentanedioic acid, reference compound]
- Body weight / tolerability ([2]; H520 study, high dose of pemetrexed, 250 mg/kg i.p. QD x 5, FIG. 4B): approaching the maximum tolerated dose
- Body weight / tolerability ([2]; mouse, in vivo, ip): initially lost significant body weight
- Tumor inhibition over the course of the study (mean tumor volume) ([3]; FIG. 4A, highest dose of pemetrexed (250 mg/kg), alone or with FGFR1-ECD.339-Fc 15 mg/kg): did not appear to inhibit tumor growth
- Tumor inhibition over the course of the study (mean tumor volume) ([3]; FIGS. 2A, 3A, 4A, FGFR1-ECD.339-Fc 15 mg/kg, pemetrexed alone at the low or medium dose (62.5 or 125 mg/kg), combination dosed concurrently): resulted in tumor inhibition

Compound: O=c1[nH]cc(F)c(=O)[nH]1 [5-FU, 5-fluoro-1H-pyrimidine-2,4-dione, reference compound]
- Fractional tumor volume (FTV), each treatment alone ([1]; day 31, FGFR1-ECD.339-Fc 15 mg/kg i.p. 2x/wk x 4 wks, 5-FU 33 mg/kg i.p. 2x/wk x 3 wks): 1.04

Compound: CC(=O)O[C@H]1C(=O)[C@@]2(C)[C@H]([C@H](OC(=O)c3ccccc3)[C@]3(O)C[C@H](OC(=O)[C@H](O)[C@@H](NC(=O)c4ccccc4)c4ccccc4)C(C)=C1C3(C)C)[C@]1(OC(C)=O)CO[C@@H]1C[C@@H]2O [Paclitaxel, (2α,4α,5β,7β,10β,13α)-4,10-bis(acetyloxy)-13-{[(2R,3S)-3-(benzoylamino)-2-hydroxy-3-phenylpropanoyl]oxy}-1,7-dihydroxy-9-oxo-5,20-epoxytax-11-en-2-yl benzoate, reference compound]
- Fractional tumor volume (FTV), each treatment alone ([1]; day 31, FGFR1-ECD.339-Fc 15 mg/kg i.p. 2x/wk x 5 wks, paclitaxel 18 mg/kg i.p. days 8, 12, 15): 0.57
- Fractional tumor volume (FTV), each treatment alone ([1]; day 38, FGFR1-ECD.339-Fc 15 mg/kg i.p. 2x/wk x 5 wks, paclitaxel 18 mg/kg i.p. days 8, 12, 15): 0.50

Compound: Bevacizumab: recombinant humanized anti-VEGF monoclonal antibody [reference compound]
- Fractional tumor volume (FTV), each treatment alone ([4]; Day 24, FGFR1-ECD.339-Fc 15 mg/kg i.p. 3x/wk x 4 wks, bevacizumab 1 mg/kg i.p. 2x/wk x 4 wks, 5-Fu/LV 10 mg/kg each q.d. x 5 days): 0.58
- Order of antitumor effect of the treatment groups ([4]; by average tumor volume on a single day and by time for average tumor volume to reach 500 mm^3 (FIG. 11E), value gives the next-ranked group): >FGFR1-ECD.339-Fc
- Mean Tumor volume mm^3(±SD) [4, 5]: 405 (±56) mm^3
- Tumor growth inhibition (%) [4, 5]: 41%

Compound: N.N.[Cl][Pt][Cl] [Cisplatin, (SP-4-2)-diamminedichloridoplatinum, reference compound]
- Mean Tumor volume mm^3(±SD) [1, 6]: 682 (±195) mm^3
- Tumor growth inhibition (%) [1, 6]: 49%
- Fractional tumor volume (FTV) relative to control, each treatment alone ([1]; day 42, FGFR1-ECD.339-Fc 20 mg/kg, cisplatin 3.5 mg/kg): 0.5
